Assay results from patent US8288419B2, “Aminopyrazole derivatives” (Actelion Pharmaceuticals, Ltd, priority 2007, dated 2012).

These compounds were tested against T1, recombinant human ALX receptor (Homo sapiens, UniProt P25090) (assay: Intracellular calcium measurements (FLIPR), ALX receptor agonistic activity). Settings: HEK293-hALXR-Gα16 cells, Fluo-4 calcium fluorescence, normalized to 10 nM WKYMVm.
T1 construct: expressed in transfected cells; host or cells: HEK293 (HEK293-hALXR-Gα16)
T1 sequence (P25090 1-351): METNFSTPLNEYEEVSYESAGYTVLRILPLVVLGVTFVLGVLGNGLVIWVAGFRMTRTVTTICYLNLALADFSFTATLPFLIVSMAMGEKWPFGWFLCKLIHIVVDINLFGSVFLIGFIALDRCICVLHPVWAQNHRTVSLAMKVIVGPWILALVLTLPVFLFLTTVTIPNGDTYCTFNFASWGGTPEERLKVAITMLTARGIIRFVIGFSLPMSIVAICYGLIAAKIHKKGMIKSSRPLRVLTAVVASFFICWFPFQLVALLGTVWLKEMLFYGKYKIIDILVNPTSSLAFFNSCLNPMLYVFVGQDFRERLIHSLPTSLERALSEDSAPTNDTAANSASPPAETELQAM
Assay type: cell-based
Procedure: The ALX receptor agonistic activity of the compounds of formula (I) is determined in accordance with the following experimental method.
Intracellular Calcium Measurements:
Cells expressing recombinant human ALX receptor and the G-protein Gα16 (HEK293-hALXR-Gα16) were grown to 80% confluency in Growing Medium (GM). […] Stock solutions of test compounds were made up at a concentration of 10 mM in DMSO, and serially diluted in AB to concentrations required for activation dose response curves. WKYMVm (Phoenix Peptides) was used as a reference agonist. A FLIPR384 instrument (Molecular Devices) was operated according to the manufacturer's standard instructions, adding 4 μl of test compound dissolved at 10 mM in DMSO and diluted prior to the experiment in assay buffer to obtain the desired final concentration. Changes in fluorescence were monitored before and after the addition of test compounds at lex=488 nm and lem=540 nm. Emission peak values above base level after compounds addition were exported after base line subtraction. Values were normalized to high-level control (WKYMVm compound, 10 nM final concentration) after subtraction of the base line value (AB addition). The program XLlfit 3.0 (IDBS) was used to fit the data to a single site dose response curve of the equation (A+((B−A)/(1+((C/x)^D)))) and to calculate the EC50 values.
With CC(=O)c1ccc(Cn2cc(NC(=O)c3ncoc3-c3cccc(C#N)c3)cn2)s1 [Example 397, 5-(3-Cyano-phenyl)-oxazole-4-carboxylic acid [1-(5-acetyl-thiophen-2-ylmethyl)-1H-pyrazol-4-yl]-amide] the EC50 was 23 nM. With COc1cccc(/C=C/C(=O)Nc2cnn(Cc3ccc(C(C)=O)o3)c2)c1OC [Example 93, (E)-N-[1-(5-Acetyl-furan-2-ylmethyl)-1H-pyrazol-4-yl]-3-(2,3-dimethoxy-phenyl)-acrylamide] the EC50 was 210 nM. COc1ccc(-c2ocnc2C(=O)Nc2ccn(Cc3ccc(C(C)=O)o3)n2)cc1 [Example 48, 5-(4-Methoxy-phenyl)-oxazole-4-carboxylic acid [1-(5-acetyl-furan-2-ylmethyl)-1H-pyrazol-3-yl]-amide] showed an EC50 of 198 nM. For CC(=O)CCCCn1cc(NC(=O)c2ncoc2-c2ccccc2)cn1 [Example 152, 5-Phenyl-oxazole-4-carboxylic acid [1-(5-oxo-hexyl)-1H-pyrazol-4-yl]-amide], the EC50 was 191 nM. With CC(=O)c1cc(Cn2cc(NC(=O)c3ncoc3-c3ccccc3)cn2)cs1 [Example 408, 5-Phenyl-oxazole-4-carboxylic acid [1-(5-acetyl-thiophen-3-ylmethyl)-1H-pyrazol-4-yl]-amide] the EC50 was 83 nM. CC(=O)c1ncc(Cn2cc(NC(=O)c3ncoc3-c3ccccc3)cn2)s1 [Example 437, 5-Phenyl-oxazole-4-carboxylic acid [1-(2-acetyl-thiazol-5-ylmethyl)-1H-pyrazol-4-yl]-amide] gave an EC50 of 99 nM. CS(=O)(=O)c1ccc(Cn2cc(NC(=O)c3ncoc3-c3ccccc3)cn2)o1 [Example 413, 5-Phenyl-oxazole-4-carboxylic acid [1-(5-methanesulfonyl-furan-2-ylmethyl)-1H-pyrazol-4-yl]-amide] gave an EC50 of 486 nM. In the case of CC(=O)c1ccc(Cn2cc(NC(=O)c3nc(Cc4ccccc4)oc3-c3ccccc3)cn2)o1 [Example 432, 2-Benzyl-5-phenyl-oxazole-4-carboxylic acid [1-(5-acetyl-furan-2-ylmethyl)-1H-pyrazol-4-yl]-amide], the EC50 is reported as 200 nM. CC(=O)c1ccc(Cn2cc(NC(=O)OCc3ccc(C(F)(F)F)cc3)cn2)o1 [Example 63, [1-(5-Acetyl-furan-2-ylmethyl)-1H-pyrazol-4-yl]-carbamic acid 4-trifluoromethyl-benzyl ester] was tested, and the EC50 was 53 nM. For CC(=O)c1ccc(Cn2cc(NC(=O)c3nc(C(C)C)oc3-c3ccccc3)cn2)o1 [Example 424, 2-Isopropyl-5-phenyl-oxazole-4-carboxylic acid [1-(5-acetyl-furan-2-ylmethyl)-1H-pyrazol-4-yl]-amide], the EC50 was 114 nM. COCCc1cccc(-c2ocnc2C(=O)Nc2ccn(Cc3ccc(C(C)=O)o3)n2)c1 [Example 379, 5-[3-(2-Methoxy-ethyl)-phenyl]-oxazole-4-carboxylic acid [1-(5-acetyl-furan-2-ylmethyl)-1H-pyrazol-3-yl]-amide] was tested, and the EC50 was 18 nM. Work on CCc1ccccc1COC(=O)Nc1cnn(Cc2ccc(C(C)(F)F)o2)c1 [Example 314, {1-[5-(1,1-Difluoro-ethyl)-furan-2-ylmethyl]-1H-pyrazol-4-yl}-carbamic acid 2-ethyl-benzyl ester] yielded an EC50 of 27 nM. For COCc1nc(C(=O)Nc2cnn(Cc3ccc(C(C)=O)o3)c2)c(-c2ccccc2)o1 [Example 416, 2-Methoxymethyl-5-phenyl-oxazole-4-carboxylic acid [1-(5-acetyl-furan-2-ylmethyl)-1H-pyrazol-4-yl]-amide], the EC50 was 61 nM. For CC(=O)c1cc(Cn2cc(NC(=O)OCc3ccccc3Cl)cn2)ccn1 [Example 407, [1-(2-Acetyl-pyridin-4-ylmethyl)-1H-pyrazol-4-yl]-carbamic acid 2-chloro-benzyl ester], the EC50 was 58 nM. For CC(=O)c1ccc(Cn2cc(NC(=O)c3ncoc3-c3ccno3)cn2)o1 [Example 420, 5-Isoxazol-5-yl-oxazole-4-carboxylic acid [1-(5-acetyl-furan-2-ylmethyl)-1H-pyrazol-4-yl]-amide], the EC50 was 388 nM. CC(=O)c1ccc(Cn2ccc(NC(=O)c3nc(C)oc3-c3cccc(OC(F)(F)F)c3)n2)s1 [Example 392, 2-Methyl-5-(3-trifluoromethoxy-phenyl)-oxazole-4-carboxylic acid [1-(5-acetyl-thiophen-2-ylmethyl)-1H-pyrazol-3-yl]-amide] gave an EC50 of 237 nM. In the case of CC(=O)c1csc(Cn2ccc(NC(=O)c3ncoc3-c3cccc(N(C)C)c3)n2)n1 [Example 449, 5-(3-Dimethylamino-phenyl)-oxazole-4-carboxylic acid [1-(4-acetyl-thiazol-2-ylmethyl)-1H-pyrazol-3-yl]-amide], the EC50 is reported as 182 nM. Compound CC(F)(F)CCCCn1cc(NC(=O)OCc2ccccc2Cl)cn1 [Example 203, [1-(5,5-Difluoro-hexyl)-1H-pyrazol-4-yl]-carbamic acid 2-chloro-benzyl ester] has an EC50 of 28 nM. With CC(=O)c1cccc(Cn2cc(NC(=O)OCc3ccccc3Cl)cn2)c1 [Example 366, [1-(3-Acetyl-benzyl)-1H-pyrazol-4-yl]-carbamic acid 2-chloro-benzyl ester] the EC50 was 56 nM. Work on CC(=O)c1ccc(Cn2ccc(NC(=O)c3ncoc3-c3cccc(C(=O)OC(C)(C)C)c3)n2)o1 [Example 381, 3-{4-[1-(5-Acetyl-furan-2-ylmethyl)-1H-pyrazol-3-ylcarbamoyl]-oxazol-5-yl}-benzoic acid tert-butyl ester] yielded an EC50 of 35 nM. CC(=O)c1ccc(Cn2cc(NC(=O)c3ncsc3-c3cccc(Cl)c3)cn2)o1 [Example 120, 5-(3-Chloro-phenyl)-thiazole-4-carboxylic acid [1-(5-acetyl-furan-2-ylmethyl)-1H-pyrazol-4-yl]-amide] gave an EC50 of 202 nM. CC(=O)c1ccc(Cn2ccc(NC(=O)c3nc(CN)oc3-c3ccccc3)n2)o1 [Example 390, 2-Aminomethyl-5-phenyl-oxazole-4-carboxylic acid [1-(5-acetyl-furan-2-ylmethyl)-1H-pyrazol-3-yl]-amide] showed an EC50 of 727 nM. Work on CC(F)(F)c1ccc(Cn2ccc(NC(=O)c3ncoc3-c3ccccc3)n2)o1 [Example 198, 5-Phenyl-oxazole-4-carboxylic acid {1-[5-(1,1-difluoro-ethyl)-furan-2-ylmethyl]-1H-pyrazol-3-yl}-amide] yielded an EC50 of 310 nM. With CC(=O)c1ncc(Cn2ccc(NC(=O)c3ncoc3-c3ccccc3)n2)o1 [Example 440, 5-Phenyl-oxazole-4-carboxylic acid [1-(2-acetyl-oxazol-5-ylmethyl)-1H-pyrazol-3-yl]-amide] the EC50 was 143 nM. For CC(F)(F)CCCCn1ccc(NC(=O)c2ncoc2-c2ccccc2)n1 [Example 202, 5-Phenyl-oxazole-4-carboxylic acid [1-(5,5-difluoro-hexyl)-1H-pyrazol-3-yl]-amide], the EC50 was 899 nM. In the case of CC(=O)c1cncc(Cn2cc(NC(=O)OCc3ccccc3Cl)cn2)c1 [Example 382, [1-(5-Acetyl-pyridin-3-ylmethyl)-1H-pyrazol-4-yl]-carbamic acid 2-chloro-benzyl ester], the EC50 is reported as 401 nM. Compound CC(=O)CCCCn1ccc(NC(=O)c2ncoc2-c2ccccc2)n1 [Example 179, 5-Phenyl-oxazole-4-carboxylic acid [1-(5-oxo-hexyl)-1H-pyrazol-3-yl]-amide] has an EC50 of 955 nM. In the case of CC(=O)c1ccc(Cn2ccc(NC(=O)/C=C/c3cccc(C(F)(F)F)c3F)n2)o1 [Example 45, (E)-N-[1-(5-Acetyl-furan-2-ylmethyl)-1H-pyrazol-3-yl]-3-(2-fluoro-3-trifluoromethyl-phenyl)-acrylamide], the EC50 is reported as 95 nM.
